Laboratory results reported in ChEMBL document CHEMBL1159069, “[Lys(DOTA)4]BVD15, a novel and potent neuropeptide Y analog designed for Y1 receptor-targeted breast tumor imaging” (Bioorg Med Chem Lett, 2010).
“And” between values parts separate entries of the source, which are not always exact repeats. Equal values may be shown once. Values belong to the compound of their own block, whether it stands above or below them. Where a SMILES comes first, the peptide text is derived from it. The star is where a group is joined. DOTA = O=C(O)CN1CCN(CC(=O)O)CCN(CC(=O)*)CCN(CC(=O)O)CC1

What was measured:
Format in all cases: cell-based
[1] = target: Neuropeptide Y receptor type 4 (Homo sapiens, UniProt P50391); test: Displacement of [125I]Pancreatic polypeptide from human neuropeptide Y4 receptor in human HEK293 cells after 40 mins
Chain of Neuropeptide Y receptor type 4 (P50391 whole entry): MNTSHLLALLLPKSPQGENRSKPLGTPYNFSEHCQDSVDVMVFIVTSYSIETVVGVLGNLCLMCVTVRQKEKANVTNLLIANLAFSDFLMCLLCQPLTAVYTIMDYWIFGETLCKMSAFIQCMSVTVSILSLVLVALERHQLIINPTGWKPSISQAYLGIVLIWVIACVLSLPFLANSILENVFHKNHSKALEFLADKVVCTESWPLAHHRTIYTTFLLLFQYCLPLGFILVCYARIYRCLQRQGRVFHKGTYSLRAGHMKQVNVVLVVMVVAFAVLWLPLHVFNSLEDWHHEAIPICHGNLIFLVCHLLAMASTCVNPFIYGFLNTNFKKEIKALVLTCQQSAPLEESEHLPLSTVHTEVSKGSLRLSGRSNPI

[2] = target: T1, Neuropeptide Y receptor type 2 (Homo sapiens, UniProt P49146); test: Displacement of [125I]PYY from human neuropeptide Y2 receptor expressed in human SK-N-BE2 cells after 40 mins
T1 sequence (P49146 whole entry): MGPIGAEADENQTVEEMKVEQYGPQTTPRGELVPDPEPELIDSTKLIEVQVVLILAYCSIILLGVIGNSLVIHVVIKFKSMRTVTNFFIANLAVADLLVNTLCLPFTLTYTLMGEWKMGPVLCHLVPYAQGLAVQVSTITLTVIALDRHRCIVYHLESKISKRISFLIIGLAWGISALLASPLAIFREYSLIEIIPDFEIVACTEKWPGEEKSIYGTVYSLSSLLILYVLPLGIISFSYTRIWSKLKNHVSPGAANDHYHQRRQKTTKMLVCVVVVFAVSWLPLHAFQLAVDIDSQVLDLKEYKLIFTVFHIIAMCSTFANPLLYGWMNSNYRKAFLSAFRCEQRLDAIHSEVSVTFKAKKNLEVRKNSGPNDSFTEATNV

[3] = target: T2, Neuropeptide Y receptor type 1 (Homo sapiens, UniProt P25929); test: Displacement of [125I]NPY from human neuropeptide Y1 receptor expressed in human MCF7 cells after 40 mins
T2 sequence (P25929 whole entry): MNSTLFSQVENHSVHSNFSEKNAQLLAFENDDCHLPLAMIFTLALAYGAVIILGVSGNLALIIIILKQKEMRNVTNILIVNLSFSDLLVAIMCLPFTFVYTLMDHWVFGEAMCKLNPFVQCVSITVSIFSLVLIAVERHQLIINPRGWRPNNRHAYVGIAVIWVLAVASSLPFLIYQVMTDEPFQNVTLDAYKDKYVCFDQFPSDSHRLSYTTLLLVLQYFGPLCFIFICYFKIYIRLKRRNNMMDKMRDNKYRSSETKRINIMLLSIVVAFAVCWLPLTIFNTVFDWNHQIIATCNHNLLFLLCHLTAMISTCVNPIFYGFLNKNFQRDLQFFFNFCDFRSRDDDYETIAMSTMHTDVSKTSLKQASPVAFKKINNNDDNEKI

Ki ([1]; hek293): Not Active | Ki [2]: Not Active
Compound: CC[C@H](C)[C@H](N)C(=O)N[C@@H](CC(N)=O)C(=O)N1CCC[C@H]1C(=O)N[C@@H](CCCCNC(=O)CN1CCN(CC(=O)O)CCN(CC(=O)O)CCN(CC(=O)O)CC1)C(=O)N[C@@H](Cc1ccc(O)cc1)C(=O)N[C@@H](CCCNC(=N)N)C(=O)N[C@@H](CC(C)C)C(=O)N[C@@H](CCCNC(=N)N)C(=O)N[C@@H](Cc1ccc(O)cc1)C(N)=O

Ki ([3]; mcf7): Not Active
Compound: CC(C)C[C@H](NC(=O)[C@H](CCCNC(=N)N)NC(=O)[C@H](Cc1ccc(O)cc1)NC(=O)[C@H](CCCCNC(=O)CN1CCN(CC(=O)O)CCN(CC(=O)O)CCN(CC(=O)O)CC1)NC(=O)[C@@H]1CCCN1C(=O)[C@@H](N)CC(N)=O)C(=O)N[C@@H](CCCNC(=N)N)C(=O)N[C@@H](Cc1ccc(O)cc1)C(=O)O (H-NPK(DOTA)YRLRY-OH)

Ki ([3]; read-out: Ki): 128 nM
Compound: H-IKPIYRLRY-NH2

Ki ([1]; read-out: Ki): 5.8 nM | Ki ([2]; read-out: Ki): 11.3 nM | Ki ([3]; read-out: Ki): 5 nM and 39 nM
Compound: H-INPIYRLRY-OH
